Results reported in patent US11554373B2 (priority 2016, dated 2023).
Where a name gives a salt, the structure may show the parent alone.

Key:
[1] = tested on: THP-1 cells; assay: THP-1 cell activation by flow cytometry (CCR5, CD11b, CD86); assay type: cell-based, human; parameters: CD86 expression (printed C86): dose or concentration left out as unconfirmed
Experimental: THP-1 monocytes (ATCC, TIB-202) were cultured in T-75 flasks according to the protocol recommended by ATCC. […] THP-1 cells show a proclivity towards forming large aggregates of loosely joined cells. These clumps were broken down back into single cells through the addition of deoxyribonuclease 1 (DNase 1, dissolved in 0.85% NaCl in water) (Sigma-Aldrich, D4513) at a concentration of 0.1 mg/mL. When cells had reached their optimal density, they were harvested and pelleted via centrifugation at 150×g for 5 min, resuspended in multi-organ system medium (MOSM) and added to the systems at a physiologically relevant concentration of 250,000 cells/mL. THP-1 cell adhesion to the inside surfaces of the housings was minimized by passivating the inside surfaces with bovine serum albumin (BSA, 0.5 mg/mL dissolved in PBS). 10 uL of medium was removed from each system daily to determine the number of freely recirculating cells present. Initial THP-1 culture medium consisted of RPMI 1640 base medium (ThermoFisher, 11875135) with 10% fetal bovine serum (ThermoFisher, 16000044) and 1× GlutaMAX (ThermoFisher, 35050061).

[2] = tested on: cardiac tissue; assay: THP-1 cell infiltration into cardiac tissue (phase contrast, CellTracker Red); assay type: cell-based, human; details: 4-O system dosed with amiodarone, after three days
Experimental: THP-1 cells were collected in a 15 mL conical tube and centrifuged to a pellet at 300 g for 5 minutes. The cells were resuspended and counted and the volume adjusted to 1×10^6 cells/mL. Then cells were then incubated with Cell Tracker Red CMTPX Dye (ThermoFisher C34552) following the manufacturer's protocol. The dye loaded cells were then used for infiltration studies in 4-O systems as described.

[3] = tested on: IPSC derived cardiomyocytes; assay: Cardiac contractile force on cantilevers in 3-O/4-O systems; assay type: cell-based, human
Experimental: (§1) A four-organ system (4-O) was developed to contain a liver compartment, recirculating THP-1 cells, and three separate bioMEMs devices to measure the cardiomyocytes' electrical and mechanical functionality, as well as the mechanical function of the skeletal muscle. Three organ systems (3-0) were also developed to serve as a monocyte-free control for the 4-O systems. […] Cardiac and skeletal muscle mechanical function was evaluated by seeding the cardiomyocytes and skeletal muscle onto their own respective custom arrays of microscale cantilevers. Contractile force of the cardiac and skeletal muscle was calculated from laser-based measurements of cantilever bending resulting from contractile muscle (Stancescu et al 2015). Cardiac electrical function was measured via a microelectrode array amplifier system by incorporating and patterning cardiomyocytes onto custom microelectrode arrays with chemical patterning to produce a defined conduction path along a series of surface embedded microelectrodes (Nataraj an et al 2011, Stancescu et al 2015). Electrical stimulation for skeletal muscle force was generated inside the system with housing-embedded electrodes for cantilevers. […]
(§2) Cardiac and skeletal muscle contractions were measured using a cantilever deflection system that has been described previously (McAleer, 2014; Oleaga, 2016; Oleaga, 2017; Pirozzi, 2013). […]

[4] = tested on: THP-1 cells; assay: Viability of THP-1 cells treated directly; assay type: cell-based, human; details: amiodarone treatment of THP-1 cells alone
[5] = tested on: liver tissue; assay: THP-1 infiltration into liver module by immunocytochemistry (CD11b, CD86); assay type: cell-based, human; details: systems with recirculating THP macrophages, amiodarone, vs controls
Experimental: At the end of each experiment, cardiac cMEAs and hepatocyte coverslips were fixed with 4% paraformaldehyde in 1×PBS for 5 minutes. Cells were rinsed twice with 1×PBS and Cells were permeabilized with a solution of 0.1% Triton X-100 in 1×PBS for 15 minutes then blocked with 5% donkey serum in 1×PBS for 20 minutes. Cells were then incubated overnight at 4° C. with primary antibody in blocking solution. Primary antibodies used were anti-CD14, anti-CD16, anti-CD69, anti-CD11b, anti-CD86, and anti-CCR5. Following three, five-minute washes with 1×PBS, cells were incubated for 2 hours at room temperature in the dark with a secondary antibody conjugated to Alexa-488 fluorophore, or Alexa-568 fluorophore. Following the secondary antibody incubation, surfaces were washed 3× in PBS and incubated with 3 mM 4′-6-Diamidino-2-Phenylindole (DAPI) in 1×PBS for 10 min, in the dark and at RT for nuclei staining. DAPI solution was removed and the cells were washed 3× with PBS. Finally, coverslips were mounted on glass slides using a Hard Set Mounting with DAPI (Vector laboratories, Inc.). Alternatively, MEAs were left in the final 1×PBS rinse and imaged using a water immersion lens.

[6] = biological target: CYP3A4 (Homo sapiens, UniProt P08684); assay: Liver cytochrome p450 activity, endpoint D7; assay type: cell-based; details: 4-O systems, 50 uM amiodarone vs untreated controls
Chain of CYP3A4 (P08684 whole entry, canonical isoform): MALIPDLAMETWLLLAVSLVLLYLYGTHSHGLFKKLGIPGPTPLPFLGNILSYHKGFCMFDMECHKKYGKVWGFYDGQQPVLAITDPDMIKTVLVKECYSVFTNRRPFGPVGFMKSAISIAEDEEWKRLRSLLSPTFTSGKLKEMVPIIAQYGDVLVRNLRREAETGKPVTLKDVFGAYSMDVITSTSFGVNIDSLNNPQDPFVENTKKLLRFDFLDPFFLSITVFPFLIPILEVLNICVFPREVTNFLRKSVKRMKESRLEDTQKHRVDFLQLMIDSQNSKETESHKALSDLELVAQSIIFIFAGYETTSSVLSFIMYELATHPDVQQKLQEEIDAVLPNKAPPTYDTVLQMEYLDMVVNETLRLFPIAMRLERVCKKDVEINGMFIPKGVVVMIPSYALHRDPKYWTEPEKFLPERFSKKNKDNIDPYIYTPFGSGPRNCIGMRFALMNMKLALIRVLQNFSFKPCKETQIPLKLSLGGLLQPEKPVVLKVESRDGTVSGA
Experimental: (§3) Cytochrome p450 1A1 and 3A4 isoforms from the hepatic cultures were assessed with a luciferin based method in two reactions. Basal activities were compared to induced activities upon incubations with 10 nM TCDD (Sigma, 48599) and 20 μM Rifampicin (Sigma, R3501) for 48 h, prior to the analysis. At 7, 14, 21 and 28 DIV, cells were rinsed 3 times with 1×PBS and incubated with 1A1 specific substrate, Luciferin-CEE (120 μM) (Promega, V8752) in phenol red-free 1×DMEM (Thermo Fisher Scientific, A1443001) for 3 h at 37° C. The enzymatic product (D-Luciferin) of the first reaction was collected and stored at −80° C. until further analysis. […] Twenty minutes after incubation at room temperature in the dark, luminescence was measured using a Synergy HT plate reader with KC4 software. […] 3A4 samples were measured separately from 1A1 samples due to high differences in luminescence emission. Similarly, induced and uninduced samples were measured separately. Each plate was measured a minimum of 5 times to ensure the photomultiplier detector was stabilized, and the average of all readings was taken for the final RLU values. A regression line with the standards (0.5-500 nM diluted in 1×DMEM), subtracting intrinsic DMEM luminescence from values, was obtained for each analysis. […]

[7] = tested on: cardiac cells; assay: Endpoint viability (alamar blue) of cardiac chips; assay type: cell-based, human; details: 50 uM; endpoint day 7
Experimental: (§4) Cell viability was evaluated in one of three ways depending on the surface the cells were grown on. […] The viability of cardiac and skeletal muscle cells plated on BioMEMs devices was assessed using an alamar blue solution (Thermofisher, DAL1025). Surfaces were incubated in 500 μL of a 10% solution (v:v) of alamar blue in growth medium at 37° C., 5% CO2 for 24 hours. 100 μL of the solution was placed into a 96 well plate and read at fluorescence excitation wavelength 570 nm and emission at 590 nm using the BioTeK Synergy HT plate reader.

[8] = tested on: IPSC derived cardiomyocytes; assay: Cardiac spontaneous beat frequency in 3-O/4-O systems; assay type: cell-based, human
Text: Custom patterned multielectrode arrays (cMEAs) were fabricated to simultaneously stimulate and record electrical activity of cardiomyocytes cultured on the surface (100 μm diameter electrodes, 1000 μm between electrodes). Before culturing, the surfaces were modified to promote cell adhesion in an unbroken “U” pattern that connected multiple electrodes, allowing conduction velocity of the cells to be recorded at different points (14 mm total path length). Patterned cMEAs were introduced to the housings during system assembly on day 0 of the experiment.
Printed circuit boards (PCBs) and flexible elastomeric connectors (zebra connectors, FUJIPOLY, 1 mm wide×18.2 mm long×9 mm tall) were incorporated into each system to create an interface between the cMEA and a commercially available 60 electrode amplifier (MEA1060, Multichannel-systems). This amplifier was used to both record spontaneous and stimulated electrical activity of the cardiomyocytes. A stimulus generator (STG 1002, Multichannel Systems) was used to stimulate the cells (800 mV rectangular pulse, 0.5 Hz to 3.0 Hz in 0.25 Hz increments). The multichannel systems software suite was used to control both the amplifier and stimulator, and was used to record action potentials.
Drug additions were performed on day 3 of the experiment, immediately after baseline recordings of spontaneous and stimulated cell activity were taken. Cell activity was recorded again 48 and 96 hours after drug exposure. Conduction velocity (CV), spontaneous beat frequency and minimum interspike interval (MIST) were extracted from the data using Clampfit (Axon Instruments).
Spontaneous beat frequency was obtained from spontaneous recordings of cardiac activity 20 seconds in length. For each recording, the frequency was calculated as the number of measured action potentials divided by the length of time between the first and last action potential during the recording interval. […]

[9] = HPLC/MS determination of amiodarone remaining in system medium; assay type: in vitro ADME; details: 24 hours post-dose
Experimental: Drug addition to the 3-O and 4-O systems was performed on D3 post-assembly. On the day of addition, 3× concentrations of each drug in the serum-free, multi-organ system medium (MOSM) were prepared in advance. ⅓ of the media in each system was removed and replaced with an equal volume of the concentrated drug solution. This facilitated for rapid mixing and complete diffusion of the drugs in the systems without requiring a full media change. […] Lipopolysaccharide (LPS, Sigma-Aldrich, L2630) was dissolved in PBS 1× at a concentration of 1 μg/mL and interferon-γ (IFN-γ) (Sigma-Aldrich, 11040596001) was dissolved in DI water at a concentration of 100,000 units/mL. LPS and IFN-γ were administered as a single cocktail at final concentrations of 10 ng/mL and 100 units/mL, respectively.
Medium samples collected from the systems were spiked with a tamoxifen internal standard (10 nM final measured concentration) and combined with acetonitrile at a 1:3 ratio to extract proteins. The mixtures were then centrifuged at 100×G for 5 minutes and supernatants were collected and diluted 1 to 51 in the initial mobile phase. […] Quantification and qualification ions for tamoxifen were 372.2→72.1 (28 eV CE) and 372.2→44 (48 eV), respectively. […]

[10] = tested on: skeletal muscle cells; assay: Endpoint viability (alamar blue) of skeletal muscle chips; assay type: cell-based, human; details: 50 uM; endpoint day 7
Experimental: as §4

[11] = biological target: CYP2C9 (Homo sapiens, UniProt P11712); assay: Liver cytochrome p450 activity, endpoint D7; assay type: cell-based; details: 4-O systems, 50 uM amiodarone vs untreated controls
Chain of CYP2C9 (P11712 whole entry): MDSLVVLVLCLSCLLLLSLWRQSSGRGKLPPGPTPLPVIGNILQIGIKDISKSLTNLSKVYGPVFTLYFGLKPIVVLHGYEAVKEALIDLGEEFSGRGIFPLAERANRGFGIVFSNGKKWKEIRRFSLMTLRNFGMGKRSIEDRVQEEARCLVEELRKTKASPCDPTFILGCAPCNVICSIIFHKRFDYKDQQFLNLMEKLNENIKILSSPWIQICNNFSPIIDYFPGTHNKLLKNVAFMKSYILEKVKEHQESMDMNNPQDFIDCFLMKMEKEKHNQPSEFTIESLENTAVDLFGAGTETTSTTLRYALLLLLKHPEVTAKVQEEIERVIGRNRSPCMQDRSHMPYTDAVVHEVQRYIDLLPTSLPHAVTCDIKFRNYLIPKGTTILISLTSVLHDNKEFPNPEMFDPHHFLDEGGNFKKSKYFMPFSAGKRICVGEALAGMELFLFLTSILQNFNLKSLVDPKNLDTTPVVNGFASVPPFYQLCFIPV

[12] = tested on: CYP1A; assay: Liver cytochrome p450 activity, endpoint D7; assay type: cell-based, human; details: 4-O systems, 50 uM amiodarone vs untreated controls
Experimental: as §3

[13] = tested on: IPSC derived cardiomyocytes; assay: Cardiac conduction velocity on patterned cMEA in 3-O/4-O systems; assay type: cell-based, human
Experimental: as §1
Custom patterned multielectrode arrays (cMEAs) were fabricated to simultaneously stimulate and record electrical activity of cardiomyocytes cultured on the surface (100 μm diameter electrodes, 1000 μm between electrodes). Before culturing, the surfaces were modified to promote cell adhesion in an unbroken “U” pattern that connected multiple electrodes, allowing conduction velocity of the cells to be recorded at different points (14 mm total path length). […]
Drug additions were performed on day 3 of the experiment, immediately after baseline recordings of spontaneous and stimulated cell activity were taken. Cell activity was recorded again 48 and 96 hours after drug exposure. […]

[14] = tested on: 3-O systems+THP-1 cells; assay: Cytokine release in multi-organ systems; assay type: cell-based, human; details: 50 uM amiodarone; 7-day time course
[15] = tested on: skeletal muscle myotubes; assay: Skeletal muscle force on cantilevers in 3-O/4-O systems; assay type: cell-based, human; details: 50 uM; up to four days after dose, with or without THP-1
Experimental: as §1, §2

[16] = THP-1 culture dosed with 50 μM PMA (positive control)
[17] = 50 uM acute, 4-O systems (with THP-1 cells)
[18] = 50 uM, 4-O systems, D4 after dose
[19] = 50 uM, without THP-1, vs untreated 3-O systems
[20] = amiodarone treatment of THP-1 cells alone
[21] = recirculating THP-1 cells from 4-O & 4-O+Amiodarone systems, days 1, 3, 5, 7

CCCCCCCCCCCCCC(=O)O[C@@H]1[C@@H](C)[C@@]2(O)[C@@H](C=C(CO)C[C@]3(O)C(=O)C(C)=C[C@@H]23)[C@@H]2C(C)(C)[C@]12OC(C)=O [PMA, phorbol 12-myristate 13-acetate]
increase in CCR5 expression [1, 16]: 8% | increase in CD11b expression [1, 16]: 23% | CD86 expression (printed C86) ([1]; THP-1 culture dosed with PMA (positive control)): relatively unchanged

CCCCc1oc2ccccc2c1C(=O)c1cc(I)c(OCCN(CC)CC)c(I)c1 [amiodarone, Amiodarone hydrochloride]
THP-1 cell infiltration into cardiac tissue [2]: visibly infiltrated | decrease in cardiac force output [3, 17]: 80% | decrease in cardiac force output ([3]; acute dose 50 uM, printed as 4-O systems treated vs untreated systems): 50% | THP-1 cell viability [4]: did not significantly alter | CD11b and CD86 staining of liver cells (THP infiltration) [5]: increase | CYP3A4 activity [6]: significantly reduced | cardiac chip viability [7]: does not significantly reduce viability | decrease in cardiac beat frequency [8, 17]: 60% | beat frequency at D4 [8, 18]: recovery | reduction of cardiac beat frequency [8, 19]: 45% | amiodarone mean concentration still present in the systems ([9]; 50 μM dose, 3-O systems+THP-1 cells): 1.41 µM | reduction of amiodarone in medium ([9]; from 50 μM): 97% | skeletal muscle chip viability [10]: does not significantly reduce viability | CYP2C9 activity [11]: not affected | CYP1A activity [12]: not affected | decrease in cardiac conduction velocity [13, 17]: 50% | conduction velocity at D4 [13, 18]: recovery | reduction of cardiac conduction velocity [13, 19]: 20% | CCR5 expression [1, 20]: did not significantly alter | CD11b expression [1, 20]: did not significantly alter | CD86 expression [1, 20]: did not significantly alter | CCR5 expression [1, 21]: largely stable | CD11b expression [1, 21]: increased | CD86 expression [1, 21]: largely stable | IL-6 level [14]: increased | IL-8 level [14]: increased | MCP-1 level [14]: increased | effect on skeletal muscle force [15]: no significant effect
